Series [1] has as its system Oryctolagus sp. The conditions noted are these: for LD50: acute.
The subject of series [2] is Rattus norvegicus. Conditions: for LD50 / LC50: acute.
For series [3], the system named is Mus musculus. Conditions: short-term; duration: 14 days; oral; gavage; M; CD1; hepatic.
In series [4] the test system is Rattus norvegicus. The conditions noted are these: chronic; duration: 2 years; oral; gavage; M/F; Fischer 344; hepatic.
Series [5] relates to Rattus norvegicus. The conditions noted are these: subchronic; oral; gavage; M/F; hepatic lesions.
Series [6] relates to Rattus norvegicus. Conditions: subchronic; duration: 13 weeks; oral; gavage; M/F; Fischer 344; Deaths + Histopathology: Liver-Vacuolar change Liver/bile duct- Hyperplasia Liver/centrilobular - necrosis Kidney-Toxic nephropathy Salivary….
The mark [7] stands for this setting: developmental, duration: 14 days, oral, gavage, Wistar.
Setting [8] is: short-term, duration: 12 days, inhalation, F, Crl:CD1.
[9] abbreviates: short-term, duration: 28 days, oral, gavage, Wistar.
[10] abbreviates: reproduction developmental, duration: 13 days, oral, gavage, F, New Zealand.
Where [11] appears, read: reproduction developmental, oral, diet, Sprague-Dawley, generation: F1.

The values that follow come from EPA's ToxValDB 9.5.

One may read the LD50 as the dose at which mortality reaches 50%. Low values mean a more toxic substance, high ones a less toxic substance. For orientation: LOAEL means the lowest tested level that showed an adverse finding. A word on the NOAEL: it is the highest tested level that showed no adverse finding.

“And” between values parts separate entries of the source, which are not always exact repeats. Equal entries are not always repeated.

For `O=C(OCC1CC=CCC1)C1CC=CCC1` (stereo not drawn), the LD50 was 5010 mg/kg and ≥ 12300 mg/kg and ≤ 13400 mg/kg in series [1] (dermal, occlusive, New Zealand); 2840 mg/kg in series [2] (oral, gavage); ≥ 1360 mg/kg and ≤ 2390 mg/kg in series [2] (oral, gavage, Sprague-Dawley).
Turning to `C1OCOCO1` [1,3,5-Trioxane], the LD50 in series [1] (dermal) was over 3980 mg/kg; in series [2] (oral, gavage) it was 8190 mg/kg. In series [2] (inhalation), this compound showed an LC50 of over 39200 mg/m3. Further, the lowest observed adverse effect level (LOAEL) in series [2] (setting [7]) was 315 mg/kg-day; in series [2] (reproduction developmental, duration: 14 days, oral, gavage, F, Wistar), 100 mg/kg-day; in series [2] (setting [8]), 3630 mg/m3; in series [2] (setting [9]), 1000 mg/kg-day. Besides, the figures for the no observed adverse effect level (NOAEL) in series [2] (setting [7]), in series [2] (setting [8]) and in series [2] (setting [9]) were 100 mg/kg-day, 379 mg/m3 and 200 mg/kg-day, respectively.
Regarding `Clc1ccccn1` [2-Chloropyridine], the median lethal dose (LD50) in series [1] (dermal) was under 200 mg/kg; in series [2] (oral, gavage) it was 342 mg/kg.
In the case of `C=CC(C)C#N` (stereo not drawn) [2-Methyl-3-butenenitrile], the LD50 in series [1] (dermal, occlusive, New Zealand) worked out at 482 mg/kg. In series [2] (inhalation, Sprague-Dawley), the LC50 was determined as 9950 mg/m3.
`CC(CO)CO` [2-Methylpropane-1,3-diol]: the LD50 in series [1] (dermal, New Zealand) is over 2000 mg/kg; in series [2] (oral, gavage, Wistar), over 5000 mg/kg. Also, the NOAEL was 1000 mg/kg-day in series [1] (reproduction developmental, duration: 28 days, oral, gavage, F, New Zealand); 1000 mg/kg-day in series [1] (reproduction developmental, duration: 28 days, oral, gavage, New Zealand, generation: F1); 1000 mg/kg-day in series [2] (developmental, duration: 20 days, oral, gavage, Wistar); 1000 mg/kg-day in series [2] (reproduction developmental, duration: 20 days, oral, gavage, F, Wistar); 1000 mg/kg-day in series [2] (reproduction developmental, duration: 20 days, oral, gavage, Wistar, generation: F1); 1000 mg/kg-day in series [2] (reproduction developmental, duration: 90 days, oral, gavage, Wistar, generation: F0). Besides, the no-observed-adverse-effect level (NOAEL) in series [2] (short-term, duration: 14 days, oral, gavage, Wistar) is 1000 mg/kg-day; in series [2] (subchronic, duration: 90 days, oral, gavage, Wistar) it was 1000 mg/kg-day. Further, the LC50 in series [2] (Inhalation, Wistar) is over 5100 mg/m3.
As to `CCCCNC(=O)OCC#CI` [3-Iodo-2-propynyl-N-butylcarbamate], the NOAEL in series [1] (setting [10]) was 20 mg/kg-day; in series [1] (reproduction developmental, duration: 13 days, oral, gavage, New Zealand, generation: F1), 50 mg/kg-day; in series [1] (subchronic, duration: 90 days, oral, diet, New Zealand), 16.5 mg/kg-day. The 50% lethal dose (LD50) in series [2] (oral, gavage, Sprague-Dawley) is 1800 mg/kg and 1470 mg/kg and 1060 mg/kg.
In the case of `CCCCN(CCCC)C(=S)SCSC(=S)N(CCCC)CCCC` [4,4'-Methylene bis(dibutyldithiocarbamate)], the values for the LD50 in series [1] (dermal) and in series [2] (oral) were over 2000 mg/kg and 16000 mg/kg, respectively. For the same compound, the no-observed-adverse-effect level (NOAEL) in series [2] (reproduction developmental, oral, diet, Sprague-Dawley, generation: F0) was 1000 ppm; in series [2] (setting [11]), over 20000 ppm. The compound further came in with an LOAEL in series [2] (setting [11]) of over 20000 ppm.
The compound `CCCCCCCC/C=C/CCCCCCCCN.F` [9-Octadecen-1-amine, hydrofluoride] showed an LOAEL in series [1] (setting [10]) of 1.2 mg/kg-day. Besides, the no-observed-adverse-effect level (NOAEL) in series [2] (reproduction developmental, oral, gavage, Long-Evans, generation: F0) came to 6 mg/kg-day; in series [2] (reproduction developmental, oral, gavage, Long-Evans, generation: F1) it was 30 mg/kg-day.
Regarding `ClC(Br)Br` [Chlorodibromomethane], the LOAEL in series [3] turned out to be 37 mg/kg-day; in series [4] it was 40 mg/kg-day; in series [5], 60 mg/kg-day. Further, the NOEL is 21.4 mg/kg-day and 30 mg/kg-day in series [5]; 30 mg/kg-day in series [6].
`O=c1[nH]c(=O)[nH]c(=O)[nH]1` [Cyanuric acid]: the 50% lethal dose (LD50) in series [1] (dermal, occlusive, New Zealand) was over 5000 mg/kg; in series [2] (oral, gavage, Sprague-Dawley), over 5000 mg/kg.
As to `ClC1=C(Cl)C2(Cl)C3CCC4C(CCC3C1(Cl)C2(Cl)Cl)C1(Cl)C(Cl)=C(Cl)C4(Cl)C1(Cl)Cl` (stereo not drawn) [Dechlorane Plus], the LD50 was over 8000 mg/kg in series [1] (dermal); over 3160 mg/kg in series [2] (oral, gavage, Sprague-Dawley); over 25000 mg/kg in series [2] (oral, gavage, Wistar). This compound gave an LOAEC in series [1] (reproduction developmental, duration: 4 weeks, dermal, non-occlusive, New Zealand, generation: F0) of 2000 mg/kg-day. Further, the LC50 was over 300 µg/mL in series [2] (inhalation, particle) and over 2.25 µg/mL in series [2] (inhalation, particle, Charles-River). Moreover, the NOAEL in series [2] (reproduction developmental, duration: 13 weeks, oral, diet, Crl, generation: F0) stood at 100000 ppm. In addition, in series [2] (reproduction developmental, duration: 28 days, inhalation, particle, Charles River COB, generation: F0), the LOAEL was 0.64 mg/L.
Take `CC(C)CCCCCCc1cccc2c(CCCCCCC(C)C)cccc12` [Diisononylnaphthalene]: the LD50 in series [1] (dermal, New Zealand) is over 20000 mg/kg; in series [2] (oral, gavage, Wistar) it was over 5000 mg/kg. The compound further returned an LC50 in series [2] (Inhalation, Wistar) of over 17 µg/mL.
